# Assay results from ChEMBL document CHEMBL1124540, “S-(2-oxopentadecyl)-CoA, a nonhydrolyzable analogue of myristoyl-CoA, is a potent inhibitor of myristoyl-CoA:protein N-myristoyltransferase” (J Med Chem, 1989).
# Experiments:
# [1] = Compound was tested for the competitive inhibition against mouse brain N-Myristoyltransferase; assay type: tissue-based
# [2] = Michaelis-Menten constant against myristoyl CoA was determined in mouse; assay type: organism-based
structure (smiles),measurement,setting,value
CCCCCCCCCCCCCC(=O)CSCCNC(=O)CCNC(=O)C(O)C(C)(C)COP(=O)(O)OP(=O)(O)OC[C@H]1O[C@@H](n2cnc3c(N)ncnc32)[C@H](O)[C@@H]1OP(=O)(O)O (some centres not stated),Ki,[1],24 nM
same,Km,[2],0.4 µM
